IC50 data for 97 compounds are collected here from PubChem BioAssay AID1054 (Sanford-Burnham Center for Chemical Genomics, 2008).

Where “and” joins values, the source holds several entries; their conditions need not be identical. Equal values may be shown once. Calls of active or inactive are those of the source. The rule behind the calls is not given here.

This assay addresses Dual specificity protein phosphatase 6 (Rattus norvegicus) (UniProt Q64346). Put plainly: DUSP6 phosphatase inhibition, redox-sensitive – biochemical, rat enzyme, secondary assay (AID 1054). The settings on record: recombinant MKP-3 phosphatase activity, redox-state secondary assay.

Dual specificity protein phosphatase 6 (Rattus norvegicus), sequence (Q64346 whole entry, looked up): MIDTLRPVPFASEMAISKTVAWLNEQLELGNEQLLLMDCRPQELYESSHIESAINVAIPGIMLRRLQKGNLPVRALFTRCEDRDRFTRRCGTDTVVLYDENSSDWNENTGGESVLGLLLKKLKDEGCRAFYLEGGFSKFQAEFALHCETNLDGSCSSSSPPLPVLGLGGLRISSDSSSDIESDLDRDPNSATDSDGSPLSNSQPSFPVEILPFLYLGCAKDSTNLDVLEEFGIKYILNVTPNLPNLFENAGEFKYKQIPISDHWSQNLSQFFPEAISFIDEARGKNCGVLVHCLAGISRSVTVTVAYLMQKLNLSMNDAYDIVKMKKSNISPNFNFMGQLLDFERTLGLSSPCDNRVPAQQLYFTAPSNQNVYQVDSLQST

Usually IC50 stands for the point on the concentration scale where inhibition reaches its midpoint. Regarding `Cc1cc(C)c2c(c1)NC(C(=O)O)C1CC=CC21` (configuration not stated), the IC50 is 46.1 µM. Turning to `O=C(O)C(O)c1ccccc1` (configuration not stated), the IC50 was > 100 µM (inactive). As for `Cc1ccccc1Cn1c(=O)n(-c2ccccc2)c(=O)n([C@H](C(=O)O)C(C)C)c1=O`, the figure is > 100 µM (inactive); as for `CCOC(=O)C1Nc2c(OC)cccc2C2OCCC12` (configuration not stated), > 100 µM (inactive); as for `CCN1CCN(C(=S)c2ccc(O)c(OC)c2)CC1`, > 100 µM (inactive). Take `Cc1cc(NC(=O)Cc2cccs2)no1`: the concentration for half-maximal inhibition (IC50) is 13.1 µM. The figure for `O=c1nc(NCCc2ccccc2)[nH]c(=O)n1-c1ccccc1` is > 100 µM (inactive); for `O=C(O)c1ccc(N2C(=O)c3ccccc3C2=O)cc1` it is > 100 µM (inactive). As for `Cc1ccccc1Cn1c(=O)n(-c2ccccc2)c(=O)n([C@@H](C)C(N)=O)c1=O`, the figure is > 100 µM (inactive); as for `O=C(Cc1cccs1)Nc1ccon1`, > 100 µM (inactive); as for `CCOC(=O)C1Nc2c(O)cc(C)cc2C2C=CCC12` (configuration not stated), > 100 µM (inactive).

As for `COc1ccc(N2Cc3cccc(C(=O)O)c3C2=O)cc1`, the IC50 was > 100 µM (inactive). On to `CCOC(=O)c1ccccc1OC(=O)c1ccc2c(c1)C1C=CCC1C(C(=O)O)N2` (configuration not stated), for which the IC50 is 6.01 µM.

Regarding `CCOc1cc2c(c([N+](=O)[O-])c1)NC(C(=O)O)C1CC=CC21` (configuration not stated), the IC50 was > 100 µM (inactive). The figure for `Clc1ccccc1CSc1nnc(-c2ccco2)c(-c2ccco2)n1` is 24.2 µM; for `Cn1c(=O)n(-c2ccc(Cl)cc2)c(=O)n([C@@H](Cc2ccccc2)C(N)=O)c1=O` it is > 100 µM (inactive).

For `CCCCCC#CCC#CCC#CCC#CCCCC(=O)O`, the IC50 was 30.4 µM. Take `O=C1c2ccccc2CC1Sc1nnc(-c2ccco2)c(-c2ccco2)n1` (configuration not stated): the IC50 was 42 µM. As for `O=C(O)c1ccc([N+](=O)[O-])c2c1NC(C(=O)O)C1CC=CC21` (configuration not stated), the figure is > 100 µM (inactive). As for `C#CCCCCCCCCCCCCCCCCCC`, the figure is > 100 µM (inactive); as for `CCCn1c(=O)nc(NCc2ccccc2OC)[nH]c1=O`, > 100 µM (inactive).

On to `Cc1ccc2c(c1)NC(C(=O)O)NS2(=O)=O` (configuration not stated), for which the IC50 was 56.9 µM. With `CSc1nnc(-c2ccco2)c(-c2ccco2)n1`, the IC50 is 99.7 µM. The figure for `COC(=O)c1ccccc1OC(=O)c1ccc2c(c1)C1C=CCC1C(C(=O)O)N2` (configuration not stated) is 17.2 µM.

For the compound `CCCCCCCCC#CC#CCCCC(=O)O`, the IC50 was > 100 µM (inactive). As for `O=C(O)C1Nc2c(O)cccc2C2C=CCC12` (configuration not stated), the figure is 10.5 µM and 14.6 µM; as for `CCC(CC)c1nnc(NC(=O)Cc2cccs2)s1`, > 100 µM (inactive); as for `Cc1ccc(O)c2c1C1C=CCC1C(C(=O)O)N2` (configuration not stated), 86.4 µM.

Regarding `NC(=O)[C@H](Cc1ccccc1)n1c(=O)[nH]c(=O)n(-c2ccc(Cl)cc2)c1=O`, the IC50 was > 100 µM (inactive). With `COc1cc(C(=S)NCc2ccc(F)c(C(F)(F)F)c2)ccc1O`, the IC50 was 1.5 µM. The figure for `Cc1ccc2c(c1C)NC(C(=O)O)C1CC=CC21` (configuration not stated) is 5.96 µM.

In the case of `CCOC(=O)C1=C(C)N=c2sc(=Cc3ccc(OCC(=O)O)cc3)c(=O)n2C1c1ccc(SC)cc1` (configuration not stated), the IC50 was 9.08 µM. The figure for `Cc1ccc2c(c1Cl)NC(C(=O)O)C1CC(Sc3ccccc3[N+](=O)[O-])C(Cl)C21` (configuration not stated) is 42.6 µM; for `CCOC(=O)C1=C(c2ccccc2)N=c2sc(=Cc3cc(OC)c(OC)c(OC)c3)c(=O)n2C1c1cccs1` (configuration not stated) it is > 50 µM (inactive); for `Cc1cc(C)c2nc3s/c(=C\c4ccc(-c5ccccc5C(=O)O)o4)c(=O)n3c2c1` it is 11.7 µM.

On to `O=C(O)C1Nc2c(F)cccc2C2C=CCC12` (configuration not stated), for which the IC50 is 17.2 µM. As for `COc1cc(C(=S)N2CCC(C)CC2)ccc1O`, the figure is 32.8 µM; as for `O=C(O)C1Nc2c(Cl)cc(Cl)c(Cl)c2C2C=CCC12` (configuration not stated), 12 µM. Turning to `CC1=C(C(=O)OC(C)C)C(c2ccc(Cl)cc2)n2c(sc(=Cc3ccc(OCC(=O)O)cc3)c2=O)=N1` (configuration not stated), the IC50 was 10.1 µM. As for `CCCCCCCCCCCCCCCCCCC=CCCCCCC(=O)O`, the figure is > 100 µM (inactive).

For `C[C@@H](C(N)=O)n1c(=O)n(Cc2ccccc2)c(=O)n(-c2ccccc2)c1=O`, the IC50 was > 100 µM (inactive). The figure for `Cc1ccc(-n2c(=O)[nH]c(=O)n([C@H](C(N)=O)C(C)C)c2=O)cc1` is > 100 µM (inactive); for `c1ccc(CSc2nnc(-c3ccco3)c(-c3ccco3)n2)cc1` it is 24.2 µM. Take `NC(=O)c1cccc2c1NC(C(=O)O)C1CC=CC21` (configuration not stated): the IC50 was 55.5 µM. For the compound `Cc1cc(O)c2c(c1)C1C=CCC1C(C(=O)O)N2` (configuration not stated), the IC50 is > 100 µM (inactive). Consider `Clc1cccc(Cl)c1COc1nnc(-c2cccs2)c(-c2cccs2)n1`, for which the IC50 was > 100 µM (inactive). As for `COc1cc(C(=S)N2CCCCC2)ccc1O`, the figure is 13.5 µM and 10.7 µM; as for `O=C(O)c1ccc2c(c1)C1C=CCC1C(C(=O)O)N2` (configuration not stated), 15.5 µM; as for `CCn1c(=O)n(Cc2ccccc2C)c(=O)n([C@@H](Cc2ccccc2)C(=O)O)c1=O`, > 100 µM (inactive). As for `COc1cc(C(=S)NC(C)(C)C)ccc1O`, the figure is > 100 µM (inactive); as for `Cc1cc(NC(=O)/C=C/c2cccs2)no1`, > 100 µM (inactive); as for `O=C(Oc1ccc(-c2ccccc2)cc1)c1cccc2c1NC(C(=O)O)C1CC=CC21` (configuration not stated), 3.5 µM.

For `O=C(O)C1Nc2c(O)cc(Cl)c([N+](=O)[O-])c2C2C=CCC12` (configuration not stated), the IC50 is 35.4 µM. For `O=C1CC(=O)N(Cc2ccco2)C(=O)N1`, the IC50 was > 100 µM (inactive).

In the case of `COc1cc(C(=S)NC2CCCCC2)ccc1O`, the IC50 is 6.35 µM. The figure for `Cc1cc2nc3s/c(=C/c4ccc(-c5ccccc5C(=O)O)o4)c(=O)n3c2cc1C` is 14.8 µM; for `CC(C)CNc1nc(=O)n(-c2ccc(F)cc2)c(=O)[nH]1` it is > 100 µM (inactive); for `Cc1ccc(C)c2c1NC(C(=O)O)C1CC=CC21` (configuration not stated) it is > 100 µM (inactive). The figure for `Cn1c(=O)n(-c2ccccc2)c(=O)n([C@@H](Cc2ccccc2)C(N)=O)c1=O` is > 100 µM (inactive); for `COc1cc(C(=S)NCc2ccc(F)c(C)c2)ccc1O` it is 7.53 µM; for `COCCCNc1nc(=O)n(-c2ccc(C)cc2)c(=O)[nH]1` it is > 100 µM (inactive). Take `COCCCNc1nc(=O)n(-c2ccc(F)cc2)c(=O)[nH]1`: the IC50 was > 100 µM (inactive). `COc1cc(C(=S)NC2CCCC2)ccc1O`: the half-maximal inhibitory concentration (IC50) is 3.77 µM. For the compound `COc1ccc(-n2c(=O)nc(NCCc3cccc(Cl)c3)[nH]c2=O)cc1`, the IC50 is > 100 µM (inactive). As for `Cn1c(=O)n(CC(N)=O)c(=O)n(-c2ccccc2)c1=O`, the figure is > 100 µM (inactive); as for `CC(=O)Nc1ccc2c(c1)C1C=CCC1C(C(=O)O)N2` (configuration not stated), > 100 µM (inactive).

With `NS(=O)(=O)c1ccc2c(c1)C1C=CCC1C(C(=O)O)N2` (configuration not stated), the IC50 was > 100 µM (inactive). As for `COc1cc(C(=S)N2CCCC2)ccc1O`, the figure is > 100 µM (inactive). The figure for `CCCCCCCCCCCCCCCCCCC#CCCCCCCCC(=O)O` is > 100 µM (inactive). As for `COc1cc(C(=S)NCc2ccc(C)cc2C)ccc1O`, the figure is 2.12 µM; as for `Cc1ccc(C)n1C(Cc1ccccc1)C(=O)O` (configuration not stated), > 100 µM (inactive). Consider `CCCn1c(=O)nc(NCc2ccc(C)cc2)[nH]c1=O`, for which the IC50 was > 100 µM (inactive). In the case of `CCn1c(=O)n(C)c(=O)n([C@@H](Cc2ccccc2)C(N)=O)c1=O`, the IC50 is > 100 µM (inactive). As for `CCCCCCn1c(=O)nc(NCc2ccccc2OC)[nH]c1=O`, the figure is > 100 µM (inactive); as for `O=c1/c(=C/c2ccccc2Cl)sc2nc3cc(Br)cnc3n12`, 2.5 µM; as for `O=C(O)c1ccc(-c2ccc(/C=c3\sc4nc5ccccc5n4c3=O)o2)cc1`, 6.59 µM.

In the case of `CCCCOC(=O)c1ccc2c(c1)C1C=CCC1C(C(=O)O)N2` (configuration not stated), the IC50 was 4.02 µM. On to `Cn1c(SCC(=O)O)nc2sc3c(c2c1=O)CCC3`, for which the IC50 was > 100 µM (inactive). Regarding `O=C(O)C1Nc2c(cccc2C(F)(F)F)C2C=CCC12` (configuration not stated), the IC50 is 7.72 µM. As for `O=C(O)C1Nc2c(cccc2N2CCOCC2)C2C=CCC12` (configuration not stated), the figure is 60.1 µM; as for `CCCCCc1nnc(NC(=O)Cc2cccs2)s1`, 17.2 µM. As for `Cc1cc(NC(=O)c2cccs2)no1`, the figure is > 100 µM (inactive); as for `CCOC(=O)C1=C(C)N=c2sc(=Cc3ccc(OCC(=O)O)cc3)c(=O)n2C1c1ccc(Cl)cc1` (configuration not stated), 16.8 µM.

Consider `O=C(O)C1Nc2cc(Cl)cc(Cl)c2C2C=CCC12` (configuration not stated), for which the IC50 is > 100 µM (inactive). As for `COc1cc(C(=S)NCc2ccc(O)cc2)ccc1O`, the figure is 16.1 µM.

For the compound `O=C(Oc1ccc2ccccc2c1)c1ccc2c(c1)C1C=CCC1C(C(=O)O)N2` (configuration not stated), the IC50 was 24.7 µM. With `CCOC(=O)C1Nc2c(OC)cccc2C2OCCCC12` (configuration not stated), the IC50 is > 100 µM (inactive). As for `O=c1/c(=C/c2ccc(-c3ccccc3[N+](=O)[O-])o2)sc2nc3cc(Br)cnc3n12`, the figure is 29.8 µM; as for `CCOC(=O)C1=C(C)N=c2s/c(=C\c3cc(Cl)c(OCC(=O)O)c(Cl)c3)c(=O)n2C1c1cccc(OC)c1` (configuration not stated), 9.64 µM; as for `Cc1ccc(CC(=O)Nc2cc(C)on2)cc1`, > 100 µM (inactive).

Turning to `O=c1/c(=C/c2ccc(-c3cc(Cl)cc(Cl)c3)o2)sc2nc3cc(Br)cnc3n12`, the concentration for half-maximal inhibition (IC50) is 14.8 µM. The figure for `Cc1cc([N+](=O)[O-])cc2c1NC(C(=O)O)C1CC=CC21` (configuration not stated) is > 100 µM (inactive); for `COc1ccc2c(c1)C1C=CCC1C(C(=O)O)N2` (configuration not stated) it is 32 µM.

Take `CCC(CC)NC(=S)c1ccc(O)c(OC)c1`: the IC50 was 4.16 µM. The figure for `COc1cc(C(=S)NCc2ccc(Cl)c(C)c2)ccc1O` is 10.5 µM; for `Cc1cc(NC(=O)CCc2ccc(C)o2)no1` it is > 100 µM (inactive); for `O=C(O)c1ccccc1-c1ccc(/C=c2\sc3nc4cc(Br)cnc4n3c2=O)o1` it is 3.11 µM.
